From PubChem BioAssay AID588588 (Sanford-Burnham Center for Chemical Genomics, 2011)
Several values for one entry are separate records, joined by “and”; a condition that tells them apart may be missing. Equal values may be shown once. Activity calls are given as the source filed them. How the calls were made is not given here.

Target: glucose-6-phosphate dehydrogenase-6-phosphogluconolactonase (Plasmodium falciparum 3D7)
Experiment: inhibition of P. falciparum G6PD activity – biochemical, end-point NADPH detection, orthogonal assay, SAR follow-up (AID 588588)
Details: recombinant PfG6PD-6PGL, direct NADPH end-point detection

Row | SMILES | IC50
1 | Cc1cccc(C(=O)Nc2nnc(S(=O)(=O)N3CCC(C)CC3)s2)c1 | > 80 µM (inactive)
2 | COc1ccc(C(=O)Nc2nnc(S(=O)(=O)N3CCCCCC3)s2)cc1OC | > 80 µM (inactive)
3 | O=C(Nc1nnc(S(=O)(=O)N2CCCc3ccccc32)s1)c1cccc(F)c1 | > 80 µM (inactive)
4 | Cc1ccc(C(=O)Nc2nnc(S(=O)(=O)N3CCCCCC3)s2)cc1 | > 80 µM (inactive)
5 | CCN1CCCC1CNC(=O)c1ccc2c(c1)NC(=O)c1ccccc1O2 (configuration not stated) | 24.2 µM
6 | O=C(Nc1nnc(S(=O)(=O)N2CCCCCC2)s1)c1ccccc1 | > 80 µM (inactive)
7 | CN(C)CCNC(=O)c1ccc2c(c1)NC(=O)CO2 | > 80 µM (inactive)
8 | COc1ccc(C(=O)Nc2nnc(S(=O)(=O)N3CCCCCC3)s2)cc1 | > 80 µM (inactive)
9 | O=C(Nc1nnc(S(=O)(=O)N2CCCCCC2)s1)C1CCCCC1 | > 80 µM (inactive)
10 | CCN(CC)CCNC(=O)c1ccc2c(c1)NC(=O)c1ccccc1O2 | > 80 µM (inactive)
11 | Cc1cccc(C(=O)Nc2nnc(S(=O)(=O)N3CCCc4ccccc43)s2)c1 | > 80 µM (inactive)
12 | CCN(CCNC(=O)c1ccc2c(c1)N(CC)C(=O)c1ccccc1S2)c1ccccc1 | > 80 µM (inactive)
13 | CCOc1ccc(C(=O)Nc2nnc(S(=O)(=O)N3CCCCCC3)s2)cc1 | > 80 µM (inactive)
14 | CCN(CC)CCNC(=O)c1ccc2c(c1)NC(=O)c1ccccc1S2 | 67.3 µM and 69.8 µM
15 | CCN1CCCC1CNC(=O)c1ccc2c(c1)NC(=O)CO2 (configuration not stated) | > 80 µM (inactive)
16 | CCN(CC)CCNC(=O)c1ccc2c(c1)N(Cc1cc(C)ccc1C)C(=O)c1ccccc1S2 | > 80 µM (inactive)

Row | SMILES | IC50
17 | CCN1CCCC1CNC(=O)c1ccc2c(c1)N(Cc1cccc(F)c1)C(=O)c1ccccc1S2 (configuration not stated) | > 80 µM (inactive)
18 | CCN(CCNC(=O)c1ccc2c(c1)N(Cc1cc(C)ccc1C)C(=O)c1ccccc1S2)c1ccccc1 | > 80 µM (inactive)
19 | CCN1CCCC1CNC(=O)c1ccc2c(c1)N(Cc1ccccc1F)C(=O)c1ccccc1S2 (configuration not stated) | > 80 µM (inactive)
20 | COc1cccc(C(=O)Nc2nnc(S(=O)(=O)N3CCCCCC3)s2)c1 | > 80 µM (inactive)
21 | Cc1cccc(C(=O)Nc2nnc(S(=O)(=O)N3c4ccccc4CC3C)s2)c1 (configuration not stated) | > 80 µM (inactive)
22 | CCN(CC)CCNC(=O)c1ccc2c(c1)NC(=O)CO2 | > 80 µM (inactive)
23 | O=C(Nc1nnc(S(=O)(=O)N2CCCCC2)s1)c1cccc(F)c1 | > 80 µM (inactive)
24 | Cc1ccc(C(=O)Nc2nnc(S(=O)(=O)N3CCCc4ccccc43)s2)cc1 | > 80 µM (inactive)
25 | Cc1cccc(C(=O)Nc2nnc(S(=O)(=O)N3CCOCC3)s2)c1 | > 80 µM (inactive)
26 | CCN1CCCC1CNC(=O)c1ccc2c(c1)N(Cc1ccc(C(F)(F)F)cc1)C(=O)c1ccccc1S2 (configuration not stated) | > 80 µM (inactive)
27 | CCN(CCNC(=O)c1ccc2c(c1)NC(=O)c1ccccc1S2)c1ccccc1 | > 80 µM (inactive)
28 | O=C(Nc1nnc(S(=O)(=O)N2CCCCCC2)s1)c1cccc(F)c1 | > 80 µM (inactive)
29 | Cc1ccccc1C(=O)Nc1nnc(S(=O)(=O)N2CCCc3ccccc32)s1 | > 80 µM (inactive)
30 | CCN1CCCC1CNC(=O)c1ccc2c(c1)NC(=O)CS2 (configuration not stated) | > 80 µM (inactive)
31 | CCN1CCCC1CNC(=O)c1ccc2c(c1)N(Cc1ccccc1Cl)C(=O)c1ccccc1S2 (configuration not stated) | > 80 µM (inactive)

Now from value to compound:

Row | IC50 | SMILES
32 | > 80 µM (inactive) | CN(C)CCNC(=O)c1ccc2c(c1)NC(=O)/C(=C\c1ccccc1F)S2
33 | > 80 µM (inactive) | CCN1CCCC1CNC(=O)c1ccc2c(c1)NC(=O)/C(=C\c1ccccc1Cl)S2 (configuration not stated)
34 | > 80 µM (inactive) | O=C(NCCN1CCCC1)c1ccc2c(c1)NC(=O)c1ccccc1S2
35 | 6.64 µM and 9.89 µM | CCN1CCCC1CNC(=O)c1ccc2c(c1)NC(=O)c1ccccc1S2 (configuration not stated)
36 | > 80 µM (inactive) | O=C1Nc2cc(C(=O)NCCN3CCCCCC3)ccc2S/C1=C/c1ccccc1F
37 | > 80 µM (inactive) | CCCN(CCC)CCNC(=O)c1ccc2c(c1)NC(=O)/C(=C/c1ccccc1)S2
38 | > 80 µM (inactive) | Cc1cccc(/C=C2/Sc3ccc(C(=O)NCCN4CCCC4)cc3NC2=O)c1
39 | > 80 µM (inactive) | CCN(CC)CCNC(=O)c1ccc2c(c1)NC(=O)/C(=C\c1cccc(C)c1)S2
40 | > 80 µM (inactive) | O=C1Nc2cc(C(=O)NCCN3CCOCC3)ccc2S/C1=C\c1ccccc1F
41 | > 80 µM (inactive) | O=C1Nc2cc(C(=O)NCc3ccccc3)ccc2S/C1=C\c1ccccc1F
42 | > 80 µM (inactive) | CCN(CC)CCNC(=O)c1ccc2c(c1)NC(=O)/C(=C\c1ccc(OC)cc1)S2
43 | > 80 µM (inactive) | CCN1CCCC1CNC(=O)c1ccc2c(c1)NC(=O)/C(=C/c1ccccc1F)S2 (configuration not stated)
44 | > 80 µM (inactive) | COc1ccc(/C=C2/Sc3ccc(C(=O)NCCN4CCCC4)cc3NC2=O)cc1
45 | > 80 µM (inactive) | O=C1Nc2cc(C(=O)NCCN3CCCC3)ccc2S/C1=C\c1ccccc1F
46 | > 80 µM (inactive) | O=C1Nc2cc(C(=O)NCCN3CCCCCC3)ccc2S/C1=C/c1ccccc1Cl
47 | > 80 µM (inactive) | O=C1COc2ccc(C(=O)NCCN3CCCC3)cc2N1
48 | > 80 µM (inactive) | COc1cccc(/C=C2/Sc3ccc(C(=O)NCCN4CCCCCC4)cc3NC2=O)c1
49 | > 80 µM (inactive) | CCN(CC)CCNC(=O)c1ccc2c(c1)NC(=O)/C(=C\c1ccccc1Cl)S2

Row | IC50 | SMILES
50 | > 80 µM (inactive) | CCN1CCCC1CNC(=O)c1ccc2c(c1)NC(=O)/C(=C\c1ccccc1F)S2 (configuration not stated)
51 | > 80 µM (inactive) | CCN1CCCC1CNC(=O)c1ccc2c(c1)NC(=O)/C(=C/c1ccccc1)S2 (configuration not stated)
52 | > 80 µM (inactive) | CCN1CCCC1CNC(=O)c1ccc2c(c1)NC(=O)/C(=C/c1ccccc1OC)S2 (configuration not stated)
53 | > 80 µM (inactive) | CCN(CC)CCNC(=O)c1ccc2c(c1)NC(=O)/C(=C/c1ccccc1)S2
54 | > 80 µM (inactive) | O=C(NCCN1CCOCC1)c1ccc2c(c1)NC(=O)c1ccccc1O2
55 | > 80 µM (inactive) | Cc1cccc(N2CCN(CCNC(=O)c3ccc4c(c3)NC(=O)c3ccccc3S4)CC2)c1C
56 | > 80 µM (inactive) | O=C(NCCN1CCCC1)c1ccc2c(c1)NC(=O)c1ccccc1O2
57 | 6.22 µM | CCC(C)N(CCNC(=O)c1ccc2c(c1)NC(=O)c1ccccc1S2)C1CCCCC1 (configuration not stated)
58 | > 80 µM (inactive) | O=C1Nc2cc(C(=O)NCCN3CCCC3)ccc2S/C1=C/c1ccccc1F
59 | > 80 µM (inactive) | CN(CCNC(=O)c1ccc2c(c1)NC(=O)c1ccccc1S2)C1CCCCC1
60 | > 80 µM (inactive) | O=C1COc2ccc(C(=O)NCCN3CCCCC3)cc2N1
61 | > 80 µM (inactive) | CCN1CCCC1CNC(=O)c1ccc2c(c1)NC(=O)/C(=C/c1ccccc1C)S2 (configuration not stated)
62 | > 80 µM (inactive) | COc1ccc(/C=C2/Sc3ccc(C(=O)NCCN4CCCCCC4)cc3NC2=O)cc1
63 | > 80 µM (inactive) | COc1cccc(/C=C2/Sc3ccc(C(=O)NCCN4CCCC4)cc3NC2=O)c1
64 | > 80 µM (inactive) | CCN1CCCC1CNC(=O)c1ccc2c(c1)NC(=O)/C(=C/c1cccc3ccccc13)S2 (configuration not stated)
65 | > 80 µM (inactive) | CN(C)CCNC(=O)c1ccc2c(c1)NC(=O)/C(=C/c1ccccc1F)S2
66 | > 80 µM (inactive) | CCN1CCCC1CNC(=O)c1ccc2c(c1)NC(=O)/C(=C\c1ccc(C)cc1)S2 (configuration not stated)
67 | > 80 µM (inactive) | O=C1Nc2cc(C(=O)NCCN3CCCC3)ccc2S/C1=C/c1ccccc1Cl
